Molecular target: T1, HTR5A (Homo sapiens, UniProt P47898)
T1 construct: purchased Promega (in-house HiBiT-GPCR construct library, NanoBRET)
Assay: NanoBRET screen HiBiT-HTR5A in HEK293
Assay type: binding
Experimental: Each tracer candidate was screened across the entire library of HiBiT-GPCR constructs using NanoBRET as the detection modality. As depicted in Figure 4A, the specificity of interactions was evaluated through decrease in BRET due to competitive displacement of a bound tracer by excess parental compound. Each tracer was analyzed for binding to each HiBiT-GPCR fusion in the absence and in the presence of competing parental compound. Briefly, HEK293 cells were transfected with HiBiT-GPCR constructs diluted into promoterless DNA to reduce expression and maximize translocation to the cell surface. Each tracer candidate was then screened at concentrations of 1 μM and 0.1 μM across cells expressing these fusions. Cells were treated for 1.5 h with tracer either alone or in the presence of 20 μM competing parental compound (i.e., control). BRET was measured upon addition of purified LgBiT and subsequent complementation with HiBiT genetically fused to a GPCR. The specificity of interactions was assessed through a decrease in BRET signal due to competitive displacement of the bound tracer. To further gauge the robustness of these interactions, the fold response over the control (i.e., BRETtracer/BRETcontrol) was calculated. We chose a 1.5-fold response, which translates to ≥7-fold signal over noise as the minimal threshold required to score an interaction as positive. […]. Below we highlight the screening results obtained for our exemplary fluorescent tracers based on Clozapine, Amitriptyline and AZD1283.
HiBiT-GPCR DNA constructs were diluted in 10 mM Tris pH 8 to a final concentration of 0.01 μg/μL, arrayed in 96-well plates and stored at −20 °C. For transfection, HEK293 cells were suspended in Opti-MEM (without phenol red) supplemented with 2% fetal bovine serum (Seradigm) and 100 units/mL penicillin–streptomycin (Gibco) at a final concentration of 220,000 cells/mL and dispensed into white 96-well plates at 90 μL/well. Subsequent transfections and screens were carried using an Agilent Bravo Automated Liquid Handling Platform. First, the 96-well HiBiT DNA arrays were diluted 25-fold in Opti-MEM (without serum or phenol red) to a final concentration of 0.0004 μg/μL and 20 μL of the diluted DNAs were transferred into new 96-well plates. Next, promoterless carrier DNA (1 μg/μL) was diluted 25-fold (0.04 μg/μL) and then dispensed into the diluted arrays at 20 μL/well. Following brief mixing, Viafect transfection reagent (Promega) diluted 16-fold into Opti-MEM was dispensed into the plates at 40 μL/well. After mixing by pipetting, plates were incubated for 10 min on the pipetting station deck. The DNA-transfection reagent complexes were then added to plates containing cells. To facilitate the screen, 10 μL of DNA-transfection reagent complexes were added in duplicates to the top 4 and bottom 4 rows, resulting in two identical 48-well arrays per plate. Plates with transfected cells were incubated for 18–20 h at 37 °C/5% CO2. A screen of each tracer across the entire library using two different concentrations requires duplicate plates of transfected cells. Depending on the number of tracers being screened, transfections can be scaled up using the same ratios. The next day, for each tracer, four 20× screening solutions in tracer dilution buffer (Promega) were prepared: two duplicates at final concentration of 20 μM and two duplicates at a final concentration of 2 μM. A competing unmodified compound was added to one of each duplicate at a final concentration of 400 μM. The four resulting solutions were diluted 4-fold in Opti-MEM without serum or phenol red to generate 5× solutions (5 µM and 0.5 µM tracer +/− 100 μM competing compound). To screen the library, a BioTek MultiFlo FX liquid dispenser was used to dispense 22.5 µL of tracer solution to the top 4 rows and 22.5 µL tracer + competing compound solution to the 4 bottom rows. Plates were briefly mixed on an orbital shaker and incubated for 1.5 h at room temperature. […]

T1 sequence (P47898 whole entry): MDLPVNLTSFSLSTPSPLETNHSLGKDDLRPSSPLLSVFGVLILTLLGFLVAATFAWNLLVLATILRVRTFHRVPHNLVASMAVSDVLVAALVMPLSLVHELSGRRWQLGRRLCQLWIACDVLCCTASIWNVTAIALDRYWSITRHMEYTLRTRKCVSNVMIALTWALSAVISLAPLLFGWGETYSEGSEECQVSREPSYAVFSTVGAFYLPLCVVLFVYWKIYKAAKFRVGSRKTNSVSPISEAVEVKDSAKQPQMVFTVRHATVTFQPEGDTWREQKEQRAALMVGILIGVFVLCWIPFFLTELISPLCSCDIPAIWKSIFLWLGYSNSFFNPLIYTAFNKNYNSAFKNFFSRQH

SMILES	NanoBRET Fold Response (HTR5A, tracer 0.1μM)	NanoBRET Fold Response (HTR5A, tracer 1μM)	also measured
O=C(CCc1ccc2n1[B-](F)(F)[N+]1=C(c3ccc[nH]3)C=CC1=C2)NCc1ccc(C(=O)NCCOCCC(=O)N[C@@H]2CC[C@@]3(O)[C@H]4Cc5ccc(O)c6c5[C@@]3(CCN4CC3CC3)[C@H]2O6)cc1 [Naltrexone-3-NB590]	0.69	0.98	
CCCn1c(=O)c2[nH]c(-c3ccc(OCC(=O)NCCNC(=O)CCOCCNC(=O)c4ccc(CNC(=O)CCc5ccc6n5[B-](F)(F)[N+]5=C(c7ccc[nH]7)C=CC5=C6)cc4)cc3)nc2n(CCC)c1=O [XAC-3-NB590]	1.12	0.97	
CC(C)N(CC[C@H](c1ccccc1)c1cc(CCNC(=O)c2ccc(CNC(=O)CCc3ccc4n3[B-](F)(F)[N+]3=C(c5ccc[nH]5)C=CC3=C4)cc2)ccc1O)C(C)C [Tolterodine-BZ-NB590]	0.98	1.03	
N#CN/C(=N\CCNC(=O)c1ccc(N)cc1)NCCCOc1cccc(CN2CCCCC2)c1 [Aminopotentidine (unmodified)]			NanoBRET Fold Response (HTR5A, other tracers/Aminopotentidine (unmodified), 0.1μM): 1.11; NanoBRET Fold Response (HTR5A, other tracers/Aminopotentidine (unmodified), 1μM): 1.09
COc1ccc2[nH]c(-c3ccc(CNC(=O)CCOCCOCCOCCOCCNC(=O)CCc4ccc5n4[B-](F)(F)[N+]4=C(c6ccc[nH]6)C=CC4=C5)cc3)c(CCNC(C)=O)c2n1 [AzomelatoninICO9-2-NB590]			NanoBRET Fold Response (0.1μM tracer): 1.02; NanoBRET Fold Response (1μM tracer): 0.84
CN1CCN(C2=Nc3cc(Cl)ccc3N(CC(=O)NCCOCCOCCOCCOCCNC(=O)CCc3ccc4n3[B-](F)(F)[N+]3=C(c5ccc[nH]5)C=CC3=C4)c3ccccc32)CC1 [Clozapine-c-2-NB590]			NanoBRET Fold Response (HTR5A, 0.1μM tracer): 1.02; NanoBRET Fold Response (HTR5A, 1μM tracer): 1.00
COc1ccccc1N1CCN(CCCCN2C(=O)c3ccc(CNC(=O)CCOCCNC(=O)c4ccc(CNC(=O)CCc5ccc6n5[B-](F)(F)[N+]5=C(c7ccc[nH]7)C=CC5=C6)cc4)cc3C2=O)CC1 [NAN-190-3-NB590]	0.99	1.06	
Cc1nc2n(c(=O)c1CCN1CCC(c3noc4cc(F)ccc34)CC1)CCCC2OC(=O)NCCOCCOCCOCCOCCNC(=O)CCc1ccc2n1[B-](F)(F)[N+]1=C(c3ccc[nH]3)C=CC1=C2 (stereo not drawn) [Risperidone-2-NB590]	1.03	1.28	
O=C(CCOCCOCCOCCOCCNC(=O)CCc1ccc2n1[B-](F)(F)[N+]1=C(c3ccc[nH]3)C=CC1=C2)NCCCN1CCN(C2=Nc3ccccc3Oc3ccc(Cl)cc32)CC1 [Loxapine-a-2-NB590]	0.97	1.32	
COc1ccccc1N1CCN(CCCCN2C(=O)c3ccc(CNC(=O)CCOCCOCCOCCOCCNC(=O)CCc4ccc5n4[B-](F)(F)[N+]4=C(c6ccc[nH]6)C=CC4=C5)cc3C2=O)CC1 [NAN-190-2-NB590]	0.96	1.13	
CC(C)N(CC[C@H](c1ccccc1)c1cc(CCNC(=O)CCOCCOCCOCCOCCNC(=O)CCc2ccc3n2[B-](F)(F)[N+]2=C(c4ccc[nH]4)C=CC2=C3)ccc1O)C(C)C [Tolterodine-2-NB590]	1.07	1.05	
N#CN=C(NCCCOc1cccc(CN2CCCCC2)c1)NCCNC(=O)CCOCCOCCOCCOCCNC(=O)CCc1ccc2n1[B-](F)(F)[N+]1=C(c3ccc[nH]3)C=CC1=C2 [Aminopotentidine-2-NB590]	1.00	0.90	
CCOC(=O)c1cc(C#N)c(N2CCC(C(=O)NS(=O)(=O)Cc3ccccc3/C=C/C(=O)NCCNC(=O)CCc3ccc4n3[B-](F)(F)[N+]3=C(c5ccc[nH]5)C=CC3=C4)CC2)nc1C [AZD1283-1-NB590]			NanoBRET Fold Response (HTR5A, 0.1μM): 0.97; NanoBRET Fold Response (HTR5A, 1μM): 1.04
CN(C)CCC=C1c2ccccc2CCc2ccc(C(=O)NCCNC(=O)CCOCCOCCOCCOCCNC(=O)CCc3ccc4n3[B-](F)(F)[N+]3=C(c5ccc[nH]5)C=CC3=C4)cc21 [Amitriptyline-b-2-NB590]			NanoBRET Fold Response (tracer at 0.1μM, listed as amitriptyline-b-2-NB590): 1.22; NanoBRET Fold Response (tracer at 1μM, listed as amitriptyline-b-2-NB590): 1.26
CN(C)CCC=C1c2ccccc2CCc2ccc(C(=O)NCCNC(=O)CCOCCOCCOCCOCCNC(=O)CCc3ccc4n3[B-](F)(F)[N+]3=C(c5ccc[nH]5)C=CC3=C4)cc21 [Amitriptyline-a-2-NB590]			NanoBRET Fold Response (tracer at 0.1μM): 1.08
O=C(CCc1ccc2n1[B-](F)(F)[N+]1=C(c3ccc[nH]3)C=CC1=C2)NCCOCCOCCNC(=O)OCCOCCN1CCN(C2=Nc3ccccc3Sc3ccccc32)CC1 [Quetiapine-a-2-NB590]	0.96	0.99	
Cc1cc2c(s1)Nc1ccccc1N=C2N1CCN(CCCNC(=O)CCOCCOCCOCCOCCNC(=O)CCc2ccc3n2[B-](F)(F)[N+]2=C(c4ccc[nH]4)C=CC2=C3)CC1 [Olanzapine-a-2-NB590]	1.06	1.03	
CN1CCN(C2=Nc3cc(Cl)ccc3Nc3ccc(CNC(=O)CCOCCOCCOCCOCCNC(=O)CCc4ccc5n4[B-](F)(F)[N+]4=C(c6ccc[nH]6)C=CC4=C5)cc32)CC1 [Clozapine-b-2-NB590]			NanoBRET Fold Response (HTR5A, 0.1μM tracer): 1.07; NanoBRET Fold Response (HTR5A, 1μM tracer): 1.35
COc1ccc2c(n1)c(CCNC(C)=O)cn2CCNC(=O)CCc1ccc2n1[B-](F)(F)[N+]1=C(c3ccc[nH]3)C=CC1=C2 [Azamelatonin-1-NB590]			NanoBRET Fold Response (0.1μM tracer): 0.89; NanoBRET Fold Response (1μM tracer): 0.89
CN(CCC=C1c2ccccc2CCc2ccccc21)C(=O)CCOCCOCCOCCOCCNC(=O)CCc1ccc2n1[B-](F)(F)[N+]1=C(c3ccc[nH]3)C=CC1=C2 [Amitriptyline-e-2-NB590]			NanoBRET Fold Response (tracer at 1μM): 1.05
O=C(CCc1ccc2n1[B-](F)(F)[N+]1=C(c3ccc[nH]3)C=CC1=C2)NCc1ccc(C(=O)NCCOCCOCCNCC(O)COc2cccc3ccccc23)cc1 (stereo not drawn) [Propranolol-3-NB590]			NanoBRET Fold Response (HTR5A, 0.1μM): 1.10; NanoBRET Fold Response (HTR5A, 1μM): 1.03
O=C(CCOCCOCCOCCOCCNC(=O)CCc1ccc2n1[B-](F)(F)[N+]1=C(c3ccc[nH]3)C=CC1=C2)NCCCN1CCN(C2=Nc3cc(Cl)ccc3Nc3ccccc32)CC1 [Clozapine-a-2-NB590]			NanoBRET Fold Response (HTR5A, 0.1μM tracer): 1.11; NanoBRET Fold Response (HTR5A, 1μM tracer): 1.29
